Measured values as given in EP0192327A2, “Use of phosphonoformic acid and its esters and salts for the manufacture of a medicament for the treatment of AIDS” (THE WELLCOME FOUNDATION LIMITED, priority 1985, dated 1986).

Columns and labels:
[1] = Toxicity: cytotoxicity in FE-10 cells; type: cell-based; details: FE-10 (mouse modified 3T3) cells, no cytotoxicity up to 100µM, read-out: concentrations at which no cytotoxicity was observed
HTLV-III = experiment: Antiviral activity: protection of target T cells against the cytopathic effects of HTLV-III; type: cell-based; details: Human immunodeficiency virus 1, T-cell; target T cells infected with HTLV-III; protection at 10µM and above; read-out: concentrations found to protect target T cells against the cytopathic effects of HTLV-III
Method: The compound of formula (1) in which R^1, R^2 and R^3 each represent a hydrogen atom was tested and found to protect target T cells against the cytopathic effects of HTLV-III at concentrations of 10µM and above.

O=C(O)P(=O)(O)O [phosphonoformic acid]
MNTC [1]: ≥ 100 µM | minimal effective concentration (HTLV-III): ≥ 10 µM
